Literature values, collected in patent publication US4906471A (priority 1989, dated 1990).

Tests used:
[1] = test system: trasient ischemic attacks; conditions: in men; prior art statement

Compound	incidence of transient ischemic attacks [1]	side effects at higher doses (patients)	side effects at usual dosage (patients; usual dosage, prior art statement)	side effects / toxic effects (patients)	side effects at low doses (patients)
CC(=O)Oc1ccccc1C(=O)O [Aspirin]	decrease the incidence of trasient ischemic attacks	tinnitus, decreased hearing and vertigo	gastric intolerance		
colestipol				constipation and bloating sensation; some times hearburn and diarrhea	
Neomycin				high toxicity	nausea, abdonimal cramps, diarrhea and malabsorption
